The source of these data is PMC6208284 (Phytotherapy Research, 2018).

Series [1] has as its system Leishmania tarentolae promastigotes (LtP). Briefly: Mitochondrial coupling (RCR) in LtP, Clark-type electrode, short- and long-term incubation. Type of series: cell-based. The note with it: 200 μM. The protocol:
Direct inhibitors of mitochondrial ETC instantaneously influence mitochondrial oxygen consumption. To assay the effect of EO compounds on oxygen consumption of LtP, a Clark‐type oxygen electrode (Hansatech, Germany) and software MCREC were used. LtP at approximately 10^8 cells/ml in YEM (25 °C) were added and treated with increasing concentrations of EO compounds between 10 and 200 μM and for EO 5.6–89.6 μg/ml. Each concentration was assayed in quadruplicates, and the results were expressed as percentage of oxygen consumption in comparison with the untreated control LtP. The highest concentration of the vehicle (1% DMSO) caused only 2% inhibition. The uncoupling effect in short‐term and long‐term (0, 6, and 24 hr) incubations with Asc (200 μM) was studied in Oligo‐inhibited (5 μM) and uncoupler‐stimulated (0.5 μM CCCP) LtP in Schneider's medium supplemented with 6 μM hemin. Four replicates were performed for each concentration.

Details of series [2]: method as in Rappoport & Frankel, 1967. The note with it: ref Rappoport & Frankel, 1967; cited from earlier work.
For series [3], the system named is Leishmania tarentolae promastigotes (LtP). Briefly: Low molecular thiols in LtP, CMFDA method. The class given is cell-based. The note with it: 5 hr incubation at 26 °C, PBS/glucose. The protocol: LtP were centrifuged twice (1,800 g, 10 min, 20 °C), the cell pellets were resuspended in PBS/glucose (15 mM), and the cell number was adjusted to 1 × 10^7/ml. Aliquots (250 μl) were added to 96‐well plates (black, nontreated plates), along with compound stocks (keeping a maximum of 2% DMSO). Following a 5‐hr incubation at 26 °C, plates were centrifuged (1,800 g, 10 min, 20 °C), and 200 μl of supernatant was removed. To the remaining cell suspension, 100 μl of CMFDA in PBS was added giving a final concentration of 5 μM. After gentle shaking, the cells were incubated for 15 min at 37 °C in the dark. The fluorescence of the methyl fluorescein (MF)‐thiol adduct (Sarkar, Mandal, Singh, Sundar, & Chatterjee, 2009) was measured at 15, 30, 45, and 60 min at 485 nm (excitation wavelength) and 530 nm (emission wavelength) using a plate reader (PerkinElmer Enspire, Germany). The OD600 nm was determined for cell count, and the measured fluorescence intensity was normalized to the cell number. Three replicate measurements were performed for each condition.

Turning to `CC(C)C12C=CC(C)(CC1)OO2` (stereo not shown) [Asc, ascaridole], the “Effect on mitochondrial coupling in LtP” value in series [1] (immediately after addition) was “only little effects”. Moreover, the “RCR with respect to vehicle‐treated LtP” value in series [1] (prolonged incubation (6 and 24 hr)) is given as “declined”.

For `Cc1ccc(C(C)C)cc1O` [Car, carvacrol], the pKa value entry in series [2] is on record as “around 10”.

For `C=C1CC[C@H]2O[C@]2(C)CC[C@@H]2[C@@H]1CC2(C)C` [Caryo, caryophyllene oxide], the “Low molecular thiol status (rate of thiol‐MF adduct formation)” value in series [3] is “decrease”.
